# Assay results published in US12162890B2 (Novartis AG, priority 2015, dated 2024).
# Biological target: HEK293 cells with stable expression of the GRIN1 gene and tetracycline-inducible expression of the GRIN2B gene (NMDA receptor, NR2B) (Homo sapiens, UniProt Q13224)
# Test: Fluo-8 Ca2+ flux assay: reversal of Ro 25-6981-mediated suppression of the Ca2+ response to co-agonist (glutamate/glycine); note: test concentration or dose not given here
# Format: cell-based
# Settings: reversal of the Ro 25-6981 suppression of the Ca2+ response to co-agonist (glutamate/glycine)
# Sequence of HEK293 cells with stable expression of the GRIN1 gene and tetracycline-inducible expression of the GRIN2B gene (NMDA receptor, NR2B) (Q13224 27-1484, other chains not shown): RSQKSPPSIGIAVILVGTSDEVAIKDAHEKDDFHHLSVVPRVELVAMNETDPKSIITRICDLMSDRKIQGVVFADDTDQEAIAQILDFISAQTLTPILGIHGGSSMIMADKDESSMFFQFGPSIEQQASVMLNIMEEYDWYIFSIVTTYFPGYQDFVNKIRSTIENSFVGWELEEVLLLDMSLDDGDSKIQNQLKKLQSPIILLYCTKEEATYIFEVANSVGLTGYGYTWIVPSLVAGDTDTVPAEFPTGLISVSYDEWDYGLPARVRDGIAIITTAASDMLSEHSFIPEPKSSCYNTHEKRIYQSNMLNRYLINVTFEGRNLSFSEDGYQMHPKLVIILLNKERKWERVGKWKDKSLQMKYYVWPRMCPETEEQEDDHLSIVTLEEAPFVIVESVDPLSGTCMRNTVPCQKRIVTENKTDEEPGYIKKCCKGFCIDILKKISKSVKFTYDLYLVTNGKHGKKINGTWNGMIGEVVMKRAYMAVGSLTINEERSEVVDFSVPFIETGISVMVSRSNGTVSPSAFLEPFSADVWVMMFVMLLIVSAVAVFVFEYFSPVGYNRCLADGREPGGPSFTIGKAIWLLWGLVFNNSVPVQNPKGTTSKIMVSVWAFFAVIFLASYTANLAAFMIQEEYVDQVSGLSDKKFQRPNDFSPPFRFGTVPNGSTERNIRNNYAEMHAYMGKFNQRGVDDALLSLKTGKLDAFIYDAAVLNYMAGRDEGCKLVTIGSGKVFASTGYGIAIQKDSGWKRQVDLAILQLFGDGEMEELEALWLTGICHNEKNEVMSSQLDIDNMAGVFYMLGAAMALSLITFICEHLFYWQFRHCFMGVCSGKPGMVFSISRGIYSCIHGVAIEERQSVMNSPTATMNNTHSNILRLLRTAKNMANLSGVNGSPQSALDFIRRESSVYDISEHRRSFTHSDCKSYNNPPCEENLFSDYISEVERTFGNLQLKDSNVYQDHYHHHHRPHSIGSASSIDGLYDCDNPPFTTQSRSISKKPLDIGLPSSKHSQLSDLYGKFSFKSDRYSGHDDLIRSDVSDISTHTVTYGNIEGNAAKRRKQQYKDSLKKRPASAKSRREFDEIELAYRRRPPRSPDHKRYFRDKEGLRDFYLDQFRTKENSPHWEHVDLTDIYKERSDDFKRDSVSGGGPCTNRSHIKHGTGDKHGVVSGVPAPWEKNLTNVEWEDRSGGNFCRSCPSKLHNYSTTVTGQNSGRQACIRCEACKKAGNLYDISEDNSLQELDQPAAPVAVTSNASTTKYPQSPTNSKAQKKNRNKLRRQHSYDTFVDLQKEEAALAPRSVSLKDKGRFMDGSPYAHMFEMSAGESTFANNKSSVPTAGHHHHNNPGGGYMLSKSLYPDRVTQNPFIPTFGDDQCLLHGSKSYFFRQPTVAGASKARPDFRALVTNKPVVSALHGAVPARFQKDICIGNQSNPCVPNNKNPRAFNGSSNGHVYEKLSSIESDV
row,Compound,Response Recovered (%)
1,"O=C(Cn1ccn2c(C3CC3)nc(-c3ccc(Cl)c(Cl)c3)c2c1=O)N1CCC(F)C1 (stereo not drawn) [Example 433, 3-cyclopropyl-1-(3,4-dichlorophenyl)-7-(2-(3-fluoropyrrolidin-1-yl)-2-oxoethyl)imidazo[1,5-a]pyrazin-8(7H)-one]",68
2,"O=C(Cn1cnc2csc(-c3ccc(F)c(Cl)c3)c2c1=O)N1CCCC1 [Example 359, 5-(3-chloro-4-fluorophenyl)-3-(2-oxo-2-(pyrrolidin-1-yl)ethyl)thieno[3,4-d]pyrimidin-4(3H)-one]",35
3,"CCC1(F)CN(C(=O)Cn2ccn3ccc(-c4cnc(Cl)c(C)c4)c3c2=O)C1 [Example 410, 8-(6-chloro-5-methylpyridin-3-yl)-2-(2-(3-ethyl-3-fluoroazetidin-1-yl)-2-oxoethyl)pyrrolo[1,2-a]pyrazin-1(2H)-one]",34
4,"Cc1cn(CC(=O)N2CC(C)(F)C2)c(=O)c2c(-c3cnc(Cl)c(Cl)c3)ccn12 [Example 420, 8-(5,6-dichloropyridin-3-yl)-2-(2-(3-fluoro-3-methylazetidin-1-yl)-2-oxoethyl)-4-methylpyrrolo[1,2-a]pyrazin-1(2H)-one]",69
5,"O=C(Cn1ccc2ncc(-c3ccc(Cl)c(Cl)c3)n2c1=O)N1CCC(F)C1 (stereo not drawn) [Example 450, 3-(3,4-dichlorophenyl)-6-(2-(3-fluoropyrrolidin-1-yl)-2-oxoethyl)imidazo[1,2-c]pyrimidin-5(6H)-one]",33
6,"O=C(Cn1cnc2ccn(-c3ccc(Cl)cc3)c2c1=O)N1CCC1 [Example 370, 3-(2-(azetidin-1-yl)-2-oxoethyl)-5-(4-chlorophenyl)-3H-pyrrolo[3,2-d]pyrimidin-4(5H)-one]",4
7,"O=C(Cn1cnc2onc(-c3ccc(Cl)cc3)c2c1=O)N1CCCC1C(F)(F)F (stereo not drawn) [Example 384, 3-(4-chlorophenyl)-5-{2-oxo-2-[2-(trifluoromethyl)pyrrolidin-1-yl]ethyl}-4H,5H-[1,2]oxazolo[5,4-d]pyrimidin-4-one]",2
8,"COC1CN(C(=O)Cn2cnc3ccn(-c4ccc(Cl)cc4)c3c2=O)C1 [Example 372, 5-(4-chlorophenyl)-3-(2-(3-methoxyazetidin-1-yl)-2-oxoethyl)-3H-pyrrolo[3,2-d]pyrimidin-4(5H)-one]",1
9,"O=C(Cn1ccn2ccc(-c3cnc(Cl)c(Cl)c3)c2c1=O)N1CC(F)(CF)C1 [Example 406, 8-(5,6-dichloropyridin-3-yl)-2-(2-(3-fluoro-3-(fluoromethyl)azetidin-1-yl)-2-oxoethyl)pyrrolo[1,2-a]pyrazin-1(2H)-one]",85
10,"O=C(Cn1ccn2ncc(-c3ccc(Cl)c(Cl)c3)c2c1=O)N1CCCC1 [Example 326, 3-(3,4-dichlorophenyl)-5-(2-oxo-2-(pyrrolidin-1-yl)ethyl)pyrazolo[1,5-a]pyrazin-4(5H)-one]",29
11,"Cn1cc(-c2ccc(Cl)cc2)c2c(=O)n(CC(=O)N3CCCC3C(F)(F)F)cnc21 (stereo not drawn) [Example 153, 5-(4-chlorophenyl)-7-methyl-3-(2-oxo-2-(2-(trifluoromethyl)pyrrolidin-1-yl)ethyl)-3H-pyrrolo[2,3-d]pyrimidin-4(7H)-one]",35
12,"Cn1cc(-c2ccc(F)c(Cl)c2)c2c(=O)n(CC(=O)N3CC(F)(F)C3)cnc21 [Example 162, 5-(3-chloro-4-fluorophenyl)-3-(2-(3,3-difluoroazetidin-1-yl)-2-oxoethyl)-7-methyl-3H-pyrrolo[2,3-d]pyrimidin-4(7H)-one]",40
13,"O=C(Cn1ccc2scc(-c3ccc(Cl)c(Cl)c3)c2c1=O)N1CC(F)(c2ccccc2)C1 [Example 53, 3-(3,4-dichlorophenyl)-5-(2-(3-fluoro-3-phenylazetidin-1-yl)-2-oxoethyl)thieno[3,2-c]pyridin-4(5H)-one]",24
14,"CC1(F)CN(C(=O)Cn2ccc3scc(-c4cnc(C#N)c(Cl)c4)c3c2=O)C1 [Example 136, 3-chloro-5-(5-(2-(3-fluoro-3-methylazetidin-1-yl)-2-oxoethyl)-4-oxo-4,5-dihydrothieno[3,2-c]pyridin-3-yl)picolinonitrile]",17
15,"Cc1cn(CC(=O)N2CC(F)(F)C2)c(=O)c2c(-c3ccc(F)c(Cl)c3)ccn12 [Example 417, 8-(3-chloro-4-fluorophenyl)-2-(2-(3,3-difluoroazetidin-1-yl)-2-oxoethyl)-4-methylpyrrolo[1,2-a]pyrazin-1(2H)-one]",20
16,"O=C(Cn1cc(CN2CCC2)c2scc(-c3ccc(Cl)c(Cl)c3)c2c1=O)N1CCC(F)C1 (stereo not drawn) [Example 122, 7-(azetidin-1-ylmethyl)-3-(3,4-dichlorophenyl)-5-(2-(3-fluoropyrrolidin-1-yl)-2-oxoethyl)thieno[3,2-c]pyridin-4(5H)-one]",27
17,"Cn1cc(-c2ccc(F)c(Cl)c2)c2c(=O)n(CC(=O)N3CCCC3)cnc21 [Example 159, 5-(3-chloro-4-fluorophenyl)-7-methyl-3-(2-oxo-2-(pyrrolidin-1-yl)ethyl)-3H-pyrrolo[2,3-d]pyrimidin-4(7H)-one]",25
18,"O=C(Cn1ccc2ccc(-c3ccc(Cl)c(Cl)c3)cc2c1=O)N1CCCC1 [Example 316, 7-(3,4-dichlorophenyl)-2-(2-oxo-2-(pyrrolidin-1-yl)ethyl)isoquinolin-1(2H)-one]",2
19,"O=C(Cn1cnc2csc(-c3ccc(C(F)(F)F)cc3)c2c1=O)N1CCCC1C(F)(F)F (stereo not drawn) [Example 357, 3-(2-oxo-2-(2-(trifluoromethyl)pyrrolidin-1-yl)ethyl)-5-(4-(trifluoromethyl)phenyl)thieno[3,4-d]pyrimidin-4(3H)-one]",2

# Next, values leading:
row,Response Recovered (%),Compound
1,64,"O=C(Cn1ccc2scc(-c3ccc(F)c(C(F)(F)F)c3)c2c1=O)N1CC2(CC2)C1 [Example 80, 3-(4-fluoro-3-(trifluoromethyl)phen-yl)-5-(2-oxo-2-(5-azaspiro[2.3]hexan-5-yl)ethyl)thieno[3,2-c]pyridin-4(5H)-one]"
2,60,"O=C(Cn1ccc2cccc(-c3ccc(Cl)c(Cl)c3)c2c1=O)N1CCC(F)C1 (stereo not drawn) [Example 304, 8-(3,4-dichlorophenyl)-2-(2-(3-fluoropyrrolidin-1-yl)-2-oxoethyl)isoquinolin-1(2H)-one]"
3,22,"COC1(C)CN(C(=O)Cn2ccc3scc(-c4ccc(F)c(C(F)(F)F)c4)c3c2=O)C1 [Example 64, 3-(4-fluoro-3-(trifluoromethyl)phen-yl)-5-(2-(3-methoxy-3-methylazetidin-1-yl)-2-oxoethyl)thieno[3,2-c]pyridin-4(5H)-one]"
4,11,"Cc1nc(-c2ccc(Cl)c(Cl)c2)c2c(=O)n(CC(=O)N3CCC(F)C3)ccn12 (stereo not drawn) [Example 429, 1-(3,4-dichlorophenyl)-7-(2-(3-fluoropyrrolidin-1-yl)-2-oxoethyl)-3-methylimidazo[1,5-a]pyrazin-8(7H)-one]"
5,43,"Cc1cn(CC(=O)N2CCC(F)C2)c(=O)c2c(-c3ccc(Cl)c(Cl)c3)ccn12 (stereo not drawn) [Example 413, 8-(3,4-dichlorophenyl)-2-(2-(3-fluoropyrrolidin-1-yl)-2-oxoethyl)-4-methylpyrrolo[1,2-a]pyrazin-1(2H)-one]"
6,130,"Cn1cc(-n2cc(-c3ccc(F)c(Cl)c3)c3c(=O)n(CC(=O)N4CC(C)(F)C4)ccc32)cn1 [Example 286, 3-(3-chloro-4-fluorophenyl)-5-(2-(3-fluoro-3-methylazetidin-1-yl)-2-oxoethyl)-1-(1-methyl-1H-pyrazol-4-yl)-1H-pyrrolo[3,2-c]pyridin-4(5H)-one]"
7,34,"O=C(Cn1ccc2scc(-c3ccc(Cl)s3)c2c1=O)N1CCC(F)C1 (stereo not drawn) [Example 31, 3-(5-chlorothiophen-2-yl)-5-(2-(3-fluoropyrrolidin-1-yl)-2-oxoethyl)thieno[3,2-c]pyridin-4(5H)-one]"
8,8,"O=C(Cn1ccc2ccc(-c3ccc(F)c(C(F)(F)F)c3)cc2c1=O)N1CCC(F)C1 (stereo not drawn) [Example 314, 7-(4-fluoro-3-(trifluoromethyl)phenyl)-2-(2-(3-fluoropyrrolidin-1-yl)-2-oxoethyl)isoquinolin-1(2H)-one]"
9,20,"CC(C)(O)Cn1cc(-c2ccc(F)c(C(F)(F)F)c2)c2c(=O)n(CC(=O)N3CCC(F)C3)ccc21 (stereo not drawn) [Example 257, 3-(4-fluoro-3-(trifluoromethyl)phenyl)-5-(2-(3-fluoropyrrolidin-1-yl)-2-oxoethyl)-1-(2-hydroxy-2-methylpropyl)-1H-pyrrolo[3,2-c]pyridin-4(5H)-one]"
10,93,"O=C(Cn1ccc2c(c(-c3ccc(Cl)c(Cl)c3)cn2CCF)c1=O)N1CCC(F)C1 (stereo not drawn) [Example 273, 3-(3,4-dichlorophenyl)-1-(2-fluoroethyl)-5-[2-(3-fluoropyrrolidin-1-yl)-2-oxoethyl]-1H,4H,5H-pyrrolo[3,2-c]pyridin-4-one]"
11,12,"O=C(Cn1ccc2scc(-c3ccc(F)c(C(F)(F)F)c3)c2c1=O)N1CC(F)(C2CC2)C1 [Example 45, 5-(2-(3-cyclopropyl-3-fluoroazetidin-1-yl)-2-oxoethyl)-3-(4-fluoro-3-(trifluoromethyl)phen-yl)thieno[3,2-c]pyridin-4(5H)-one]"
12,14,"O=C(Cn1cc(-c2ncon2)c2scc(-c3ccc(F)c(C(F)(F)F)c3)c2c1=O)N1CCCC1 [Example 109, 3-(4-fluoro-3-(trifluoromethyl)phenyl)-7-(1,2,4-oxadiazol-3-yl)-5-(2-oxo-2-(pyrrolidin-1-yl)ethyl)thieno[3,2-c]pyridin-4(5H)-one]"
13,140,"COCn1cc(-c2ccc(F)c(Cl)c2)c2c(=O)n(CC(=O)N3CC(C)(F)C3)ccc21 [Example 254, 3-(3-chloro-4-fluorophenyl)-5-(2-(3-fluoro-3-methylazetidin-1-yl)-2-oxoethyl)-1-(methoxymethyl)-1,5-dihydro-4H-pyrrolo[3,2-c]pyridin-4-one]"
14,43,"O=C(Cn1ccc2[nH]cc(-c3cnc(Cl)c(C(F)(F)F)c3)c2c1=O)N1CC(F)C(F)C1 (stereo not drawn) [Example 221, 3-(6-chloro-5-(trifluoromethyl)pyridin-3-yl)-5-(2-(3,4-difluoropyrrolidin-1-yl)-2-oxoethyl)-1H-pyrrolo[3,2-c]pyridin-4(5H)-one]"
